# Measured values as given in patent publication US9902794B2, “Curable composition, optical component and compound” (FUJIFILM Corporation, priority 2014, dated 2018).
# Experiment: Solvent solubility evaluation of aromatic ring-containing compound in PGMEA
# Format: physicochemical
# Conditions: 1 g compound and 1 mL PGMEA stirred for 24 hours at 25° C.
# Method: <Solvent Solubility Evaluation>
# 1 g of an aromatic ring-containing compound and 1 mL of propylene glycol monomethyl ether acetate (PGMEA) were stirred for 24 hours at 25° C. and then the aromatic ring-containing compound was mixed with PGMEA uniformly and evaluated by the following criteria.
# A: 50% by mass or more of an aromatic ring-containing compound were dissolved in PGMEA.
# B: 30% by mass or more and less than 50% by mass of an aromatic ring-containing compound were dissolved in PGMEA.
# C: 5% by mass or more and less than 30% by mass of an aromatic ring-containing compound were dissolved in PGMEA.
# D: The amount of an aromatic ring-containing compound dissolved in PGMEA was less than 5% by mass.
# The solvent solubility of an aromatic ring-containing compound was measured in the same manner as described above.
row,Structure (SMILES),Solvent solubility evaluation
1,C=CC(=O)OCCOc1ccc2nc(C3(c4nc5ccc(OCCOC(=O)C=C)cc5s4)c4ccccc4-c4ccccc43)sc2c1 [Compound I],A (50% by mass or more of an aromatic ring-containing compound were dissolved in PGMEA)
2,C=CC(=O)OCCOc1ccc2nc(-c3ccc(C4(c5ccc(-c6nc7ccc(OCCOC(=O)C=C)cc7s6)cc5)c5ccccc5-c5cc6ccccc6cc54)cc3)sc2c1 [Compound 6],A (50% by mass or more of an aromatic ring-containing compound were dissolved in PGMEA)
3,C=CC(=O)OCCOc1ccc2cc(C3(c4ccc(OCCOC(=O)C=C)c(-c5nc6ccccc6s5)c4)c4ccccc4-c4cc5ccccc5cc43)ccc2c1 (stereo not drawn) [Compound E],A (50% by mass or more of an aromatic ring-containing compound were dissolved in PGMEA)
4,C=CC(=O)OCCOc1ccc2cc(-c3ccc4nc(C5(c6nc7ccc(-c8ccc9cc(OCCOC(=O)C=C)ccc9c8)cc7s6)c6ccccc6-c6cc7ccccc7cc65)sc4c3)ccc2c1 [Compound 5],A (50% by mass or more of an aromatic ring-containing compound were dissolved in PGMEA)
5,C=CC(=O)OCCOc1ccc(-c2ccc3nc(C4(c5nc6ccc(-c7ccc(OCCOC(=O)C=C)cc7)cc6s5)c5ccccc5-c5cc6ccccc6cc54)sc3c2)cc1 [Compound 4],A (50% by mass or more of an aromatic ring-containing compound were dissolved in PGMEA)
6,"C=CC(=O)OCCOc1ccc(C2(c3ccc(OCCOC(=O)C=C)cc3)c3ccccc3-c3ccccc32)cc1 [Comparative Compound 1, reference compound]",C (5% by mass or more and less than 30% by mass of an aromatic ring-containing compound were dissolved in PGMEA)
7,C=CC(=O)OCCOc1ccc2c(c1)C(c1ccc(-c3nc4ccccc4o3)cc1)(c1ccc3cc(OCCOC(=O)C=C)ccc3c1)c1cc3ccccc3cc1-2 (stereo not drawn) [Compound D],B (30% by mass or more and less than 50% by mass of an aromatic ring-containing compound were dissolved in PGMEA)
8,C=CC(=O)OCCOc1ccc2c(c1)-c1cc3ccccc3cc1C2(c1ccc(-c2nc3ccccc3s2)cc1)c1ccc2cc(OCCOC(=O)C=C)ccc2c1 (stereo not drawn) [Compound 1],A (50% by mass or more of an aromatic ring-containing compound were dissolved in PGMEA)
9,C=CC(=O)OCCOc1ccc(C2(c3ccc(OCCOC(=O)C=C)cc3)c3ccccc3-c3cc4sc(-c5ccccc5)nc4cc32)cc1 [Compound G],B (30% by mass or more and less than 50% by mass of an aromatic ring-containing compound were dissolved in PGMEA)
10,C=CC(=O)OCCOc1ccc(-c2nc3ccc(C4(c5ccc6nc(-c7ccc(OCCOC(=O)C=C)cc7)sc6c5)c5ccccc5-c5cc6ccccc6cc54)cc3s2)cc1 [Compound 9],A (50% by mass or more of an aromatic ring-containing compound were dissolved in PGMEA)
11,C=CC(=O)OCCOc1ccc(C2(c3ccc4sc(-c5ccccc5)nc4c3)c3ccccc3-c3cc(OCCOC(=O)C=C)ccc32)cc1 (stereo not drawn) [Compound F],B (30% by mass or more and less than 50% by mass of an aromatic ring-containing compound were dissolved in PGMEA)
12,C=CC(=O)OCCOc1ccc(-c2nc3cc(C4(c5ccc6oc(-c7ccc(OCCOC(=O)C=C)cc7)nc6c5)c5ccccc5-c5cc6ccccc6cc54)ccc3o2)cc1 [Compound H],B (30% by mass or more and less than 50% by mass of an aromatic ring-containing compound were dissolved in PGMEA)
13,C=CC(=O)OCCOc1ccc(-c2nc3cc(C(c4ccccc4)(c4ccccc4)c4ccc5sc(-c6ccc(OCCOC(=O)C=C)cc6)nc5c4)ccc3s2)cc1 [Compound A],B (30% by mass or more and less than 50% by mass of an aromatic ring-containing compound were dissolved in PGMEA)
14,C=CC(=O)OCCOc1ccc2cc(-c3nc4ccc(C5(c6ccc7nc(-c8ccc9cc(OCCOC(=O)C=C)ccc9c8)sc7c6)c6ccccc6-c6cc7ccccc7cc65)cc4s3)ccc2c1 [Compound 10],A (50% by mass or more of an aromatic ring-containing compound were dissolved in PGMEA)
15,C=CC(=O)OCCOc1ccc2c(c1)-c1cc(OCCOC(=O)C=C)ccc1C2(c1ccc2nc(-c3ccccc3)sc2c1)c1ccc2nc(-c3ccccc3)sc2c1 [Compound B],B (30% by mass or more and less than 50% by mass of an aromatic ring-containing compound were dissolved in PGMEA)
16,C=CC(=O)OCCOc1ccc2c(c1)-c1cc3ccccc3cc1C2(c1ccc(-c2nc3ccccc3s2)cc1)c1ccc(OCCOC(=O)C=C)c2ccccc12 (stereo not drawn) [Compound 2],A (50% by mass or more of an aromatic ring-containing compound were dissolved in PGMEA)
17,C=CC(=O)OCCOc1ccc(C2(c3ccc4sc(-c5ccc6cc(OCCOC(=O)C=C)ccc6c5)nc4c3)c3ccccc3-c3cc4ccccc4cc32)cc1 (stereo not drawn) [Compound J],A (50% by mass or more of an aromatic ring-containing compound were dissolved in PGMEA)
18,C=CC(=O)OCCOc1ccc2cc(-c3nc4ccc(C5(c6ccc7nc(-c8ccc9cc(OCCOC(=O)C=C)ccc9c8)sc7c6)c6ccccc6-c6ccccc65)cc4s3)ccc2c1 [Compound 8],A (50% by mass or more of an aromatic ring-containing compound were dissolved in PGMEA)
19,C=CC(=O)OCCOc1ccc(-c2ccc(C3(c4ccc(OCCOC(=O)C=C)cc4)c4ccccc4-c4cc5sc(-c6ccccc6)nc5cc43)cc2)cc1 (stereo not drawn) [Compound C],B (30% by mass or more and less than 50% by mass of an aromatic ring-containing compound were dissolved in PGMEA)
20,C=CC(=O)OCCOc1ccc2nc(-c3ccc(C4(c5ccc(-c6nc7ccc(OCCOC(=O)C=C)cc7s6)cc5)c5ccccc5-c5ccccc54)cc3)sc2c1 [Compound 3],A (50% by mass or more of an aromatic ring-containing compound were dissolved in PGMEA)
21,C=CC(=O)OCCOc1ccc(-c2nc3ccc(C4(c5ccc6nc(-c7ccc(OCCOC(=O)C=C)cc7)sc6c5)c5ccccc5-c5ccccc54)cc3s2)cc1 [Compound 7],A (50% by mass or more of an aromatic ring-containing compound were dissolved in PGMEA)
